Test results taken from PubChem BioAssay (NCI).
Where “and” joins values, the source holds several entries; their conditions need not be identical. Equal entries are not always repeated.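 Cells were grown in 96-well plates and exposed to each compound for 48 hours at five concentrations; endpoints were interpolated linearly between bracketing concentrations, or set to the highest concentration if not reached. GI50 = concentration required for 50% inhibition of growth. Definition used: TGI = concentration required for complete inhibition of growth.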

Legend:
Experiment in all cases: NCI anticancer screen, dose series, 48 h
HL-60(TB) leukemia = system: HL-60(TB) leukemia
K-562 leukemia = system: K-562 leukemia
OVCAR-8 ovarian = system: OVCAR-8 ovarian
RPMI-8226 leukemia = system: RPMI-8226 leukemia
RXF 393 renal = system: RXF 393 renal
SF-539 CNS = system: SF-539 CNS
SW-620 colon = system: SW-620 colon
U251 CNS = system: U251 CNS
UACC-257 melanoma = system: UACC-257 melanoma
BT-549 breast = system: BT-549 breast

Compound | TGI (HL-60(TB) leukemia) [µM] | TGI (K-562 leukemia) [µM] | TGI (OVCAR-8 ovarian) [µM] | TGI (RPMI-8226 leukemia) [µM] | TGI (RXF 393 renal) | TGI (SF-539 CNS) [µM] | TGI (SW-620 colon) [µM] | TGI (U251 CNS) [µM] | TGI (UACC-257 melanoma) [µM] | GI50 (BT-549 breast) [µM] | TGI (BT-549 breast) [µM] | GI50 (HL-60(TB) leukemia) [µM] | GI50 (K-562 leukemia) [µM] | GI50 (OVCAR-8 ovarian) [µM] | GI50 (RPMI-8226 leukemia) [µM] | GI50 (SF-539 CNS) [µM] | GI50 (SW-620 colon) [µM] | GI50 (U251 CNS) [µM] | GI50 (UACC-257 melanoma) [µM] | GI50 (RXF 393 renal)
CCOC(=O)C1=C(C(=O)OCC)C2c3ccccc3C=CN2C(C(=O)OCC)=C(SC)S1 (stereo not drawn) | > 100 | > 100 | > 100 | > 100 | > 100 µM | > 100 | > 100 | > 100 | > 100 |  |  |  |  |  |  |  |  |  |  | 
O=S(=O)(N/N=C/c1cccc(/C=N/NS(=O)(=O)c2ccccc2)c1)c1ccccc1 | > 100 | > 100 | > 100 | > 100 | > 100 µM | > 100 |  | > 100 | > 100 |  |  |  |  |  |  |  |  |  |  | 
CCCCN(CCCC)C(=O)C(=O)C(C(=O)c1ccc(OC)cc1)c1ccc(OC)cc1 (stereo not drawn) | > 100 | > 100 | > 100 |  | > 100 µM | > 100 | > 100 | > 100 | > 100 |  |  |  |  |  |  |  |  |  |  | 
COc1ccc(OC)c(N2CC(N)C2=O)c1 (stereo not drawn) | > 100 | > 100 | > 100 | > 100 | > 100 µM | > 100 | > 100 | > 100 | > 100 |  |  |  |  |  |  |  |  |  |  | 
Cc1ccc(Oc2ccc(C)cc2N)cc1 | > 100 | > 100 | > 100 | > 100 | > 100 µM | > 100 | > 100 | > 100 | > 100 |  |  |  |  |  |  |  |  |  |  | 
CC(=O)NNc1nc(C)c(C(=O)/C=C/c2ccc(NC(C)=O)cc2)s1 | > 100 | > 100 | > 100 | > 100 | > 100 µM | > 100 | > 100 | > 100 | > 100 |  |  |  |  |  |  |  |  |  |  | 
CC(=O)O/N=C(/C)c1ccccc1O | > 100 | > 100 | > 100 | > 100 | > 100 µM | > 100 | > 100 | > 100 | > 100 |  |  |  |  |  |  |  |  |  |  | 
O=C(Nc1ccccc1-c1nn(C(=S)Nc2ccccc2)c(=S)n(C(=S)Nc2ccccc2)c1=O)C(F)(F)F | 58.5 | > 95.6 | > 90.3 | 50.2 | > 100 µM | > 100 | > 64.7 | > 70.9 | 31.4 |  |  |  |  |  |  |  |  |  |  | 
COC(=O)C(CCCN1C(=O)c2ccccc2C1=O)C(=O)OC | > 100 | > 100 | > 100 |  | > 100 µM | > 100 | > 100 | > 100 | > 100 |  |  |  |  |  |  |  |  |  |  | 
COc1ccc(C2[C@@H](c3ccccc3)C(=O)N2c2cc(OC)c(OC)c(OC)c2)cc1F (stereo partly drawn) | 0.0542 | > 100 | > 100 | 4 |  | 0.0706 | > 100 | > 100 |  | 0.0266 | 0.09 | 0.0223 | 0.0321 | 0.0344 | 0.0413 | 0.0234 | 0.0419 | 0.0359 |  | 
CC(C)(C)c1cc2c(O)c3cccc4c(=O)c5cccc6c5-c(c34)c2c(c1)c6=O | > 100 | > 100 | > 100 |  | 97.8 µM |  | > 100 | > 100 | > 100 |  |  |  |  |  |  |  |  |  |  | 
Cc1ccc(/C=C/C(=O)CCN(C)C)cc1 | 47 | > 100 | 62.2 | > 100 | 41.6 µM | 31.3 | 30.2 | 30 | 31 |  |  |  |  |  |  |  |  |  |  | 
C/C(=N/Nc1ccc([N+](=O)[O-])cc1[N+](=O)[O-])C(CC(C(=O)NCc1ccccc1)/C(C)=N\Nc1ccc([N+](=O)[O-])cc1[N+](=O)[O-])C(=O)NCc1ccccc1 (stereo not drawn) |  |  | 4.73 | 44.8 | 15 µM | 14.9 | 24.4 | 11.1 | 18 |  |  |  |  |  |  |  |  |  |  | 
Cc1cccc(C)c1NC(=O)CCCC(=O)C1/C(=N/NC(=O)CC#N)CCC/C1=N\NC(=O)CC#N (stereo not drawn) | > 100 | > 100 | > 100 | > 100 |  | > 100 | > 100 | > 100 | > 100 |  |  |  |  |  |  |  |  |  |  | 
CCOP(=O)(OCC)C(F)(F)c1ccc(CC(NC(=O)OC(C)(C)C)C(=O)O)cc1 (stereo not drawn) |  | > 10 | > 10 |  |  | > 10 | > 10 | > 10 | > 10 |  | > 10 |  |  |  |  |  |  |  |  | 
COc1ccc(C)cc1-c1cc(Sc2ccccc2)c(-c2cc(C)ccc2OC)o1 | > 31.6 | > 31.6 | > 31.6 | > 31.6 |  | > 31.6 | > 31.6 | > 31.6 | > 31.6 |  |  |  |  |  |  |  |  |  |  | 

Compound | TGI (HL-60(TB) leukemia) [µM] | TGI (K-562 leukemia) [µM] | TGI (OVCAR-8 ovarian) [µM] | TGI (RPMI-8226 leukemia) [µM] | TGI (RXF 393 renal) | TGI (SF-539 CNS) [µM] | TGI (SW-620 colon) [µM] | TGI (U251 CNS) [µM] | TGI (UACC-257 melanoma) [µM] | GI50 (BT-549 breast) [µM] | TGI (BT-549 breast) [µM] | GI50 (HL-60(TB) leukemia) [µM] | GI50 (K-562 leukemia) [µM] | GI50 (OVCAR-8 ovarian) [µM] | GI50 (RPMI-8226 leukemia) [µM] | GI50 (SF-539 CNS) [µM] | GI50 (SW-620 colon) [µM] | GI50 (U251 CNS) [µM] | GI50 (UACC-257 melanoma) [µM] | GI50 (RXF 393 renal)
CCC(=C/[C@H](C)C/C=C/C(C)=C/[C@@H](C)C(=O)[C@@H](C)[C@H](O)[C@@H](C)CC)/C=C/[C@H]1OC(=O)C=C[C@@H]1C | 1.77 |  | 10.3 | 1.19 |  | < 0.01 | 1.32 | 1.36 |  | < 0.01 | 0.429 | < 0.01 | < 0.01 | < 0.01 | < 0.01 | < 0.01 | < 0.01 | < 0.01 |  | 
COc1nc(NC2OC(COC(C)=O)C(OC(C)=O)C(OC(C)=O)C2OC(C)=O)c2c(OC(C)=O)cc(=O)oc2n1 (stereo not drawn) | > 100 | > 100 | > 100 | > 100 | > 100 µM | > 100 | > 100 | > 100 | > 100 |  |  |  |  |  |  |  |  |  |  | 
CCc1c(OC(C)=O)c2c(NC3OCC(OC(C)=O)C(OC(C)=O)C3OC(C)=O)nc(SC)nc2oc1=O (stereo not drawn) | > 100 | > 100 | > 100 | > 100 | > 100 µM | > 100 | > 100 | > 100 | > 100 |  |  |  |  |  |  |  |  |  |  | 
C/C(CCn1[nH]c(=O)ccc1=O)=N\NC(=O)C(=O)NN | > 100 | > 100 | > 100 | > 100 | > 100 µM | > 100 | > 100 |  | > 100 |  |  |  |  |  |  |  |  |  |  | 
Cc1ccc(/C=C/C(=O)c2cccc3ccccc23)cc1 | 28.3 | 44.3 | 29 | > 100 | 26.2 µM |  | 26.2 | 25.6 | 33.7 |  |  |  |  |  |  |  |  |  |  | 
O=C1C=CC(=O)c2nc3c(cc21)CCC3 |  | 39.3 | 28.8 |  | 34.2 µM |  | 31.1 | > 100 | 33.9 |  |  |  |  |  |  |  |  |  |  | 
CC(=O)OCCOCNC(=S)N/N=C(\C)c1cnccn1 | 76.1 | > 100 | > 100 | > 100 | > 100 µM | > 100 | > 100 | > 100 | > 100 |  |  |  |  |  |  |  |  |  |  | 
COC(=O)CC(c1ccccc1)C1(c2ccccc2)SCCS1 (stereo not drawn) | > 290 | > 290 | > 290 | > 290 | > 290 µM | > 290 | > 290 | > 290 | > 290 |  |  |  |  |  |  |  |  |  |  | 
O=C1CCC2(c3ccc(Cl)cc3)Nc3ccncc3N12 (stereo not drawn) | > 10 | > 10 | > 10 |  |  | > 10 | > 10 | > 10 | > 10 |  | > 10 |  |  |  |  |  |  |  |  | 
O=C(Oc1ccc(Cl)cc1)c1ccccc1Nc1ccnc(C(F)(F)F)c1 | > 100 | 87.8 | 35.5 | 8.28 |  | 32.7 | 63.3 |  | 24.4 | 14.9 | 41.2 | 6.48 | 3.65 | 4.04 | 2.87 | 15 | 6.66 |  | 4.51 | 
CC(C)(C)c1cc2ccc(C(N)=O)cc2c(=O)[nH]1 | > 100 | > 100 | > 100 |  | > 100 µM | > 100 | > 100 | > 100 | > 100 |  |  |  |  |  |  |  |  |  |  | 
COc1ccc(-c2cn[nH]c2-c2cc(OC)c(OC)c(OC)c2)cc1 | 0.0671 | 26.7 | 38.1 | 5.16 | 25.1 µM | 0.0566 | 26.7 | 1.7 | > 49.6 |  |  | 0.0249 | < 0.0109 | 0.05 | 0.0429 | 0.0218 | 0.0316 | 0.0358 | 0.558 | 0.0269 µM
CN(C)CCn1c2c3ccccc3ccc2c2oc(=O)c3ccccc3c21 | > 100 | > 100 |  | 43.2 |  | 7.1 | 32.4 | 20 | 16.4 |  |  |  |  |  |  |  |  |  |  | 
NC(=O)c1ccccc1NC(=O)C(=O)C(C(=O)c1ccc(Cl)c(Cl)c1)C1OC(=O)c2ccccc21 (stereo not drawn) | > 100 | > 100 | > 100 | > 100 | 45.7 µM |  | > 100 | > 100 | > 100 |  |  |  |  |  |  |  |  |  |  | 
Cc1cc2c(C)[nH]nc2c(C(=O)O)c1C | > 100 | > 100 | > 100 | > 100 | > 100 µM | > 100 | > 100 | > 100 | > 100 |  |  |  |  |  |  |  |  |  |  | 
CCCCCCCCCCCCCCCC[N+](C)(C)Cc1ccccc1 | 2.45 |  |  | 0.239 | 1.97 µM and 1.35 µM |  |  |  |  |  |  | 0.859 |  |  | 0.0516 |  |  |  |  | 0.606 µM and 0.306 µM
